Measured values taken from US12415926B2, “Small tunable fluorophores for the detection and imaging of biomolecules” (The University Court of the University of Edinburgh, priority 2019, dated 2025).

Assays:
Neutrophils = assay: Uptake of lactic acid analogue in live cells by flow cytometry (hypoxia/normoxia, lactate competition); format: cell-based, human
Procedure: (§1) B) Fluorescence emission of live cells after incubation with compound SCOTfluor-84 (100 μM) at different oxygen tensions (normoxia: blue; hypoxia: red) and in normoxic cells after competition with lactic acid (no lactate: red; 5 mM lactate: blue). Values as means and s.e.m as error bars. C) Time-lapse TIRF tracking of fluorescent particles in untreated (top) and DMOG-treated (10 μM, bottom) HeLa cells after incubation with compound SCOTfluor-84 (100 μM). Scale bars: 1 μm. D) Histograms of the diffusion coefficients of fluorescent particles in normoxic (blue) and hypoxic (red) cells. Dotted lines delineate fast and slow diffusion species. Mean diffusion coefficients (D) were determined after averaging the tracks of multiple particles for each condition (n=1,009 for untreated; n=2,906 for DMOG-treated).
Ex vivo experiments with fresh human peripheral blood from healthy donors were approved by the Accredited Medical Regional Ethics Committee (AMREC, reference number 15-HV-013). Peripheral blood polymorphonuclear cells from healthy volunteers were isolated as previously described. Briefly, citrated blood (3.8%) was centrifuged at room temperature at 350 g for 20 min, platelet-rich plasma was removed and separation from erythrocytes was achieved by Dextran sedimentation and fractionation of leukocytes using isotonic Percoll gradient. […] Flow cytometry data were analyzed using FlowJo software. […]

[1] = Optical properties of SCOTfluors (absorbance, emission, extinction coefficient, quantum yield, solvatochromism); format: physicochemical
Procedure: All compounds were dissolved in different organic solvents, including toluene, chloroform, tetrahydrofuran, ethanol, DMSO and water (final concentrations: 10-50 μM). Fluorescence spectra were acquired on a spectrophotometer upon excitation at their maxima absorbance wavelengths.
The optical properties of SCOTfluor-80, 79, 78, 76 and 81 were compared with the properties of the original NBD.

HeLa cells [2] = assay: TIRF single-particle tracking of intracellular diffusion; format: cell-based, human; conditions: DMOG-treated (10 μM) vs untreated, 100 μM
Procedure: as §1
Imaging was performed using a home-built, bespoke single-molecule total internal reflection fluorescence (TIRF) microscope. […] Fluorescence collected by the same objective was separated from the returning TIR beam by a dichroic mirror DI02-R514 (Semrock) for 515 nm and was passed through appropriate filters [515 nm: BLP01-561R, FF01-607/36 (Semrock)]. Fluorescence was then passed through a 2.5× beam expander and recorded on an EMCCD camera (Delta Evolve 512, Photometrics) operating in frame transfer mode (EMGain=11.5 e^−/ADU and 250 ADU/photon). […]

HeLa cells [3] = assay: Cytotoxicity assay in HeLa cells; conditions: 100 μM and 75 μM (1% DMSO), 4 h at 37° C.
Procedure: Cell viabilities were normalized to incubation in cell culture media under the same experimental conditions. A solution of 40% DMSO in cell culture media was used as a known cytotoxic positive control. Values represented as means±s.e.m. (n=3).

Structure (SMILES): O=C(O)[C@H](O)CNc1ccc([N+](=O)[O-])c2n[se]nc12 [SCOTfluor-84, (R)-2-hydroxy-3-((7-nitrobenzo[c][1,2,5]selenadiazol-4-yl)amino)propanoic acid]
- uptake in hypoxic vs normoxic cells (Neutrophils; hypoxic (1% O2) vs normoxic (20% O2), 100 μM): Increased uptake
- fluorescence staining under competition with excess lactic acid (Neutrophils; normoxic cells, 5 mM lactic acid): markedly reduced
- emission [1]: ~605 nm
- mean diffusion coefficients of fluorescent particles, hypoxic vs normoxic cells (HeLa cells [2]): higher mean diffusion coefficients
- cytotoxicity (cell viability) (HeLa cells [3]): no significant cytotoxicity
